In the NIST ThermoML archive (doi:10.1021/je800468h):
“And” between values parts separate entries of the source, which are not always exact repeats. Equal values may be shown once.

Columns and labels:
[1] = 298.15 K, 101 kPa, Liquid; for electrical conductivity: Alternating current cell with electrodes; for mass density: Vibrating tube method
[2] = xn = mol fraction of the nth substance listed; conditions: 298.15 K, 101 kPa, Liquid; for electrical conductivity: Alternating current cell with electrodes; for mass density: Vibrating tube method

CCCCn1cc[n+](C)c1.N#CN=C=[N-] [1-butyl-3-methylimidazolium dicyanamide]
[1]
Conditions	electrical conductivity [S/m]	mass density [kg/m3]
–	1.139	1059.12

CCCCn1cc[n+](C)c1.N#CN=C=[N-] [1-butyl-3-methylimidazolium dicyanamide] + O
[2]
Conditions	electrical conductivity [S/m]	mass density [kg/m3]
x1 = 0.009639	2.02	1003.22
x1 = 0.02791	3.49	1011.25
x1 = 0.05432	4.43	1019.63
x1 = 0.07995	4.8	1025.43
x1 = 0.1112	4.9	1031.05
x1 = 0.1933	4.47	1040.01
x1 = 0.3214	3.55	1047.31
x1 = 0.4686	2.71	1051.86
x1 = 0.6386	2	1055.38
x1 = 0.8742	1.37	1058.33
x1 = 1	1.139	1059.12

CCCCn1cc[n+](C)c1.F[P-](F)(F)(F)(F)F [1-butyl-3-methylimidazolium hexafluorophosphate]
[1]
Conditions	electrical conductivity [S/m]	mass density [kg/m3]
–	0.147	1368.32

CCCCn1cc[n+](C)c1.F[P-](F)(F)(F)(F)F [1-butyl-3-methylimidazolium hexafluorophosphate] + CC#N
[2]
Conditions	electrical conductivity [S/m]	mass density [kg/m3]
x1 = 0.007571	1.49	795.63
x1 = 0.01576	2.54	815.17
x1 = 0.02489	3.39	835.56
x1 = 0.03448	4.05	855.89
x1 = 0.05838	5	901.77
x1 = 0.08779	5.39	950.71
x1 = 0.1261	5.27	1004.47
x1 = 0.1772	4.68	1062.7
x1 = 0.2521	3.63	1128.61
x1 = 0.3649	2.3	1199.71
x1 = 0.5591	0.995	1278.14
x1 = 0.7291	0.469	1321.97
x1 = 0.8729	0.253	1349.76
x1 = 1	0.147	1368.32

CCCCn1cc[n+](C)c1.F[B-](F)(F)F [1-butyl-3-methylimidazolium tetrafluoroborate]
[1]
Conditions	electrical conductivity [S/m]	mass density [kg/m3]
–	0.353	1202.19

CCCCn1cc[n+](C)c1.F[B-](F)(F)F [1-butyl-3-methylimidazolium tetrafluoroborate] + CO
[2]
Conditions	electrical conductivity [S/m]	mass density [kg/m3]
x1 = 0.007409	0.867	802.48
x1 = 0.01543	1.45	818.28
x1 = 0.02435	1.97	834.29
x1 = 0.03355	2.4	849.76
x1 = 0.05717	3.3	885.02
x1 = 0.08589	3.81	921.13
x1 = 0.1242	4.18	961.01
x1 = 0.1755	4.26	1002.48
x1 = 0.248	3.92	1046.31
x1 = 0.3624	3.09	1094.85
x1 = 0.5583	1.76	1145.28

CCCCn1cc[n+](C)c1.F[B-](F)(F)F [1-butyl-3-methylimidazolium tetrafluoroborate] + C[S+](C)[O-]
[2]
Conditions	electrical conductivity [S/m]	mass density [kg/m3]
x1 = 0.01925	0.687	1101.56
x1 = 0.03427	1.029	1106.21
x1 = 0.07837	1.56	1117.8
x1 = 0.1247	1.715	1128.31
x1 = 0.1866	1.67	1139.5
x1 = 0.2554	1.502	1150.71
x1 = 0.3251	1.31	1159.4
x1 = 0.4423	1.015	1171.71
x1 = 0.5246	0.854	1178.2
x1 = 0.6132	0.711	1184.27
x1 = 0.7494	0.543	1192.13

CCCCn1cc[n+](C)c1.F[B-](F)(F)F [1-butyl-3-methylimidazolium tetrafluoroborate] + ClCCl
[2], x1 = 1
Conditions	electrical conductivity [S/m]	mass density [kg/m3]
–	0.353	1202.19

CCCCn1cc[n+](C)c1.F[B-](F)(F)F [1-butyl-3-methylimidazolium tetrafluoroborate] + O
[2]
Conditions	electrical conductivity [S/m]	mass density [kg/m3]
x1 = 0.005053	1.72	1007
x1 = 0.008751	2.47	1013.47
x1 = 0.01927	3.59	1030.78
x1 = 0.03304	4.46	1047.81
x1 = 0.04969	4.9	1065.19
x1 = 0.07385	5.17	1084.47
x1 = 0.1053	5.21	1103.47
x1 = 0.1566	4.93	1124.77
x1 = 0.1991	4.55	1137.3
x1 = 0.2824	3.71	1154.46
x1 = 0.414	2.57	1171.08
x1 = 0.4919	2.04	1177.86
x1 = 0.5749	1.57	1183.94
x1 = 0.6838	1.1	1190.14
x1 = 0.7594	0.846	1193.53
x1 = 0.8931	0.527	1198.74
x1 = 1	0.353	1202.19

CCn1cc[n+](C)c1.F[B-](F)(F)F [1-ethyl-3-methylimidazolium tetrafluoroborate]
[1]
Conditions	electrical conductivity [S/m]	mass density
–	1.55	1283.7 kg/m3 and 1283.7 kg/m3 and 1280.38 kg/m3

CCn1cc[n+](C)c1.F[B-](F)(F)F [1-ethyl-3-methylimidazolium tetrafluoroborate] + CC#N
[2]
Conditions	electrical conductivity [S/m]	mass density
x1 = 0.008411	1.58	791.26 kg/m3
x1 = 0.01082	1.9	795.48 kg/m3
x1 = 0.01528	2.46	802.59 kg/m3
x1 = 0.01646	2.55	804.68 kg/m3
x1 = 0.02252	3.13	814.3 kg/m3
x1 = 0.02253	3.14	813.87 kg/m3
x1 = 0.04929	4.89	853.38 kg/m3
x1 = 0.04942	4.94	854.17 kg/m3
x1 = 0.08059	6.03	893.87 kg/m3
x1 = 0.1007	6.5	916.26 kg/m3
x1 = 0.1218	6.72	939.88 kg/m3
x1 = 0.1433	6.94	960.07 kg/m3
x1 = 0.1736	6.92	988.57 kg/m3
x1 = 0.2043	6.91	1012.5 kg/m3
x1 = 0.2371	6.65	1038.16 kg/m3
x1 = 0.2778	6.41	1063.36 kg/m3
x1 = 0.3264	5.9	1093.25 kg/m3
x1 = 0.384	5.41	1120.11 kg/m3
x1 = 0.4565	4.64	1153.25 kg/m3
x1 = 0.4888	4.44	1163.04 kg/m3
x1 = 0.6478	3.2	1211.72 kg/m3
x1 = 0.652	3.1	1215.55 kg/m3
x1 = 0.759	2.54	1237.95 kg/m3
x1 = 0.8336	2.11	1255.87 kg/m3
x1 = 0.8902	1.95	1263.01 kg/m3
x1 = 1	1.55	1283.7 kg/m3 and 1280.38 kg/m3

CCn1cc[n+](C)c1.F[B-](F)(F)F [1-ethyl-3-methylimidazolium tetrafluoroborate] + O
[2]
Conditions	electrical conductivity [S/m]	mass density [kg/m3]
x1 = 0.004746	1.87	1007.69
x1 = 0.01001	3.26	1018.31
x1 = 0.02226	5.35	1040.22
x1 = 0.03637	6.81	1061.36
x1 = 0.05733	8.08	1087.31
x1 = 0.08102	8.84	1110.93
x1 = 0.115	9.24	1136.45
x1 = 0.174	9.08	1168.6
x1 = 0.2564	8.13	1198.61
x1 = 0.419	5.99	1233.28
x1 = 1	1.55	1283.7

CCCCCCn1cc[n+](C)c1.F[B-](F)(F)F [1-hexyl-3-methylimidazolium tetrafluoroborate]
[1]
Conditions	electrical conductivity [S/m]	mass density [kg/m3]
–	0.1228	1146.34

CCCCCCn1cc[n+](C)c1.F[B-](F)(F)F [1-hexyl-3-methylimidazolium tetrafluoroborate] + CC#N
[2]
Conditions	electrical conductivity [S/m]	mass density [kg/m3]
x1 = 0.004117	0.838	784.24
x1 = 0.008445	1.442	791.63
x1 = 0.01744	2.35	806.26
x1 = 0.03816	3.51	836.42
x1 = 0.06486	4.13	869.76
x1 = 0.09763	4.25	903.86
x1 = 0.1399	3.96	939.67
x1 = 0.1943	3.37	975.94
x1 = 0.2712	2.53	1014.86
x1 = 0.3907	1.543	1056.74
x1 = 0.5902	0.656	1100.45
x1 = 0.7435	0.344	1122.12
x1 = 0.8889	0.192	1137.2
x1 = 1	0.1228	1146.34

CCCCCCn1cc[n+](C)c1.F[B-](F)(F)F [1-hexyl-3-methylimidazolium tetrafluoroborate] + O
[2]
Conditions	electrical conductivity	mass density
x1 = 0.0007116	0.327 S/m	998.06 kg/m3
x1 = 0.001428	0.567 S/m	999.52 kg/m3
x1 = 0.001482	0.608 S/m	999.64 kg/m3
x1 = 0.002238	0.854 S/m	1001.24 kg/m3
x1 = 0.00296	1.05 S/m and 1.06 S/m	1002.63 kg/m3 and 1002.7 kg/m3
x1 = 0.003642	1.225 S/m	1003.94 kg/m3
x1 = 0.00447	1.411 S/m	1005.24 kg/m3
x1 = 0.004747	1.47 S/m	1005.61 kg/m3
x1 = 0.2816	2.03 S/m	1113.63 kg/m3
x1 = 0.314	1.829 S/m	1116.76 kg/m3
x1 = 0.3441	1.66 S/m	1119.43 kg/m3
x1 = 0.3813	1.46 S/m	1122.43 kg/m3
x1 = 0.4148	1.29 S/m	1124.75 kg/m3
x1 = 0.5139	0.898 S/m	1130.58 kg/m3
x1 = 0.5161	0.885 S/m	1130.73 kg/m3
x1 = 0.7069	0.417 S/m	1138.7 kg/m3
x1 = 1	0.1228 S/m	1146.34 kg/m3

CC1COC(=O)O1 (stereo unspecified) [4-methyl-1,3-dioxolan-2-one] + CCCCn1cc[n+](C)c1.F[B-](F)(F)F
[2]
Conditions	electrical conductivity [S/m]	mass density [kg/m3]
x2 = 0.02318	0.537	1201.32
x2 = 0.04836	0.873	1202.51
x2 = 0.1028	1.23	1204.3
x2 = 0.1601	1.346	1205.43
x2 = 0.2277	1.332	1206.17
x2 = 0.3056	1.229	1206.51
x2 = 0.407	1.05	1206.44
x2 = 0.5126	0.875	1206.03
x2 = 0.6192	0.715	1205.48
x2 = 0.7173	0.593	1204.39
x2 = 0.8497	0.463	1203.39

ClCCl [dichloromethane] + CCCCn1cc[n+](C)c1.F[B-](F)(F)F
[2]
Conditions	electrical conductivity [S/m]	mass density [kg/m3]
x2 = 0.00755	0.0602	1316.6
x2 = 0.01921	0.2	1314.92
x2 = 0.02714	0.31	1313.4
x2 = 0.03878	0.436	1311.8
x2 = 0.07987	0.98	1304.97
x2 = 0.1395	1.427	1294.06
x2 = 0.194	1.55	1284.29
x2 = 0.2674	1.607	1271.96
x2 = 0.3355	1.53	1261.43
x2 = 0.4787	1.209	1242.95
x2 = 0.6019	0.93	1230.33
x2 = 0.773	0.62	1216.18
x2 = 0.8496	0.511	1211.19
x2 = 0.9107	0.441	1207.46
